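Method: 48-hour compound exposure of cells in 96-well plates, five concentrations, linear interpolation of endpoints. Here, GI50 denotes the concentration required for 50% inhibition of growth.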 The source made the active and inactive calls. Cut-off read from the data, not from the text of the source: active = GI50 up to about 1.1 µM and inactive = higher.
Tests used:
Assay in all cases: inhibition of tumour cell growth, NCI panel, 48 h
786-0 = system: 786-0
A549 = system: A549
ACHN = system: ACHN
BT-549 = system: BT-549
CAKI-1 = system: CAKI-1
CCRF-CEM = system: CCRF-CEM
COLO 205 = system: COLO 205
DU-145 = system: DU-145
EKVX = system: EKVX
HCC 2998 = system: HCC 2998
HCT-116 = system: HCT-116
HCT-15 = system: HCT-15
HL-60 = system: HL-60
HOP-62 = system: HOP-62
HOP-92 = system: HOP-92
HT-29 = system: HT-29
Hs-578T = system: Hs-578T
IGROV-1 = system: IGROV-1
K562 = system: K562
KM12 = system: KM12
LOX IMVI = system: LOX IMVI
M14 = system: M14
MCF7 = system: MCF7
MDA-MB-231 = system: MDA-MB-231
MDA-MB-435 = system: MDA-MB-435
MDA-N = system: MDA-N
MOLT-4 = system: MOLT-4
Malme-3M = system: Malme-3M
NCI-H226 = system: NCI-H226
NCI-H460 = system: NCI-H460
NCI-H522 = system: NCI-H522
NCI/ADR-RES = system: NCI/ADR-RES
OVCAR-4 = system: OVCAR-4
OVCAR-5 = system: OVCAR-5
OVCAR-8 = system: OVCAR-8
PC-3 = system: PC-3
RPMI-8226 = system: RPMI-8226
RXF 393 = system: RXF 393
SF-268 = system: SF-268
SF-295 = system: SF-295
SF-539 = system: SF-539
SK-MEL-28 = system: SK-MEL-28
SK-MEL-2 = system: SK-MEL-2
SK-MEL-5 = system: SK-MEL-5
SK-OV-3 = system: SK-OV-3
SN12C = system: SN12C
SNB-19 = system: SNB-19
SNB-75 = system: SNB-75
SR = system: SR
SW-620 = system: SW-620
T47D = system: T47D
TK-10 = system: TK-10
U-251 = system: U-251
UACC-257 = system: UACC-257
UACC-62 = system: UACC-62
UO-31 = system: UO-31
NCI-H23 = system: NCI-H23
OVCAR-3 = system: OVCAR-3

## N#CCc1nc(-c2cc3ccc(O)cc3oc2=O)cs1
786-0
  GI50: > 100 µM (inactive)
A549
  GI50: 55 µM (inactive)
ACHN
  GI50: 57.9 µM (inactive)
BT-549
  GI50: 25.2 µM (inactive)
CAKI-1
  GI50: > 100 µM (inactive)
CCRF-CEM
  GI50: 38.7 µM (inactive)
COLO 205
  GI50: > 100 µM (inactive)
DU-145
  GI50: 83.4 µM (inactive)
EKVX
  GI50: 63 µM (inactive)
HCC 2998
  GI50: 87.1 µM (inactive)
HCT-116
  GI50: 53.1 µM (inactive)
HCT-15
  GI50: 35.9 µM
HL-60
  GI50: 29.2 µM (inactive)
HOP-62
  GI50: > 100 µM (inactive)
HOP-92
  GI50: > 100 µM (inactive)
HT-29
  GI50: 72.9 µM (inactive)
Hs-578T
  GI50: 66.1 µM (inactive)
IGROV-1
  GI50: 49.1 µM (inactive)
K562
  GI50: 31.5 µM (inactive)
KM12
  GI50: 28.5 µM (inactive)
LOX IMVI
  GI50: 46.2 µM (inactive)
M14
  GI50: 46.5 µM (inactive)
MCF7
  GI50: 47.6 µM (inactive)
MDA-MB-231
  GI50: 95.1 µM (inactive)
MDA-MB-435
  GI50: 33.1 µM (inactive)
MDA-N
  GI50: 48.9 µM (inactive)
MOLT-4
  GI50: 37.9 µM (inactive)
Malme-3M
  GI50: > 100 µM (inactive)
NCI-H226
  GI50: 53.6 µM (inactive)
NCI-H460
  GI50: 50 µM (inactive)
NCI-H522
  GI50: > 100 µM (inactive)
NCI/ADR-RES
  GI50: > 100 µM (inactive)
OVCAR-4
  GI50: 43.4 µM (inactive)
OVCAR-5
  GI50: > 100 µM (inactive)
OVCAR-8
  GI50: > 100 µM (inactive)
PC-3
  GI50: 34.3 µM (inactive)
RPMI-8226
  GI50: 25.7 µM (inactive)
RXF 393
  GI50: 84.7 µM (inactive)
SF-268
  GI50: 83.2 µM (inactive)
SF-295
  GI50: 33.2 µM (inactive)
SF-539
  GI50: 69.3 µM (inactive)
SK-MEL-28
  GI50: 35.2 µM (inactive)
SK-MEL-2
  GI50: 27.2 µM (inactive)
SK-MEL-5
  GI50: 38.7 µM (inactive)
SK-OV-3
  GI50: 73.6 µM (inactive)
SN12C
  GI50: 54.8 µM (inactive)
SNB-19
  GI50: > 100 µM (inactive)
SNB-75
  GI50: 57 µM (inactive)
SR
  GI50: 29.4 µM (inactive)
SW-620
  GI50: 39.6 µM (inactive)
T47D
  GI50: 36.7 µM (inactive)
TK-10
  GI50: > 100 µM (inactive)
U-251
  GI50: 45.8 µM (inactive)
UACC-257
  GI50: 41.7 µM (inactive)
UACC-62
  GI50: 22.6 µM (inactive)
UO-31
  GI50: 37.2 µM (inactive)

## NS(=O)(=O)c1ccc(NC(=S)N/C=C2\C(=O)Nc3ccccc3C2=O)cc1
786-0
  GI50: > 100 µM (inactive)
A549
  GI50: > 100 µM (inactive)
ACHN
  GI50: > 100 µM (inactive)
BT-549
  GI50: > 100 µM (inactive)
CAKI-1
  GI50: 20.1 µM (inactive)
CCRF-CEM
  GI50: > 100 µM (inactive)
COLO 205
  GI50: > 100 µM (inactive)
DU-145
  GI50: > 100 µM (inactive)
EKVX
  GI50: > 100 µM (inactive)
HCC 2998
  GI50: > 100 µM (inactive)
HCT-116
  GI50: > 100 µM (inactive)
HCT-15
  GI50: > 100 µM
HL-60
  GI50: 2.07 µM (inactive)
HOP-62
  GI50: > 100 µM (inactive)
HOP-92
  GI50: > 100 µM (inactive)
HT-29
  GI50: > 100 µM (inactive)
Hs-578T
  GI50: > 100 µM (inactive)
IGROV-1
  GI50: > 100 µM (inactive)
K562
  GI50: > 100 µM (inactive)
KM12
  GI50: > 100 µM (inactive)
LOX IMVI
  GI50: > 100 µM (inactive)
M14
  GI50: > 100 µM (inactive)
MCF7
  GI50: > 100 µM (inactive)
MDA-MB-231
  GI50: > 100 µM (inactive)
MDA-MB-435
  GI50: > 100 µM (inactive)
MDA-N
  GI50: > 100 µM (inactive)
MOLT-4
  GI50: > 100 µM (inactive)
NCI-H226
  GI50: > 100 µM (inactive)
NCI-H23
  GI50: > 100 µM (inactive)
NCI-H460
  GI50: > 100 µM (inactive)
NCI-H522
  GI50: > 100 µM (inactive)
NCI/ADR-RES
  GI50: > 100 µM (inactive)
OVCAR-3
  GI50: > 100 µM (inactive)
OVCAR-4
  GI50: > 100 µM (inactive)
OVCAR-5
  GI50: > 100 µM (inactive)
OVCAR-8
  GI50: > 100 µM (inactive)
PC-3
  GI50: > 100 µM (inactive)
RPMI-8226
  GI50: > 100 µM (inactive)
RXF 393
  GI50: > 100 µM (inactive)
SF-268
  GI50: > 100 µM (inactive)
SF-295
  GI50: > 100 µM (inactive)
SF-539
  GI50: > 100 µM (inactive)
SK-MEL-28
  GI50: > 100 µM (inactive)
SK-MEL-2
  GI50: > 100 µM (inactive)
SK-MEL-5
  GI50: > 100 µM (inactive)
SK-OV-3
  GI50: > 100 µM (inactive)
SN12C
  GI50: > 100 µM (inactive)
SNB-19
  GI50: > 100 µM (inactive)
SNB-75
  GI50: > 100 µM (inactive)
SR
  GI50: > 100 µM (inactive)
SW-620
  GI50: > 100 µM (inactive)
T47D
  GI50: > 100 µM (inactive)
TK-10
  GI50: > 100 µM (inactive)
U-251
  GI50: > 100 µM (inactive)
UACC-257
  GI50: > 100 µM (inactive)
UACC-62
  GI50: > 100 µM (inactive)
UO-31
  GI50: > 100 µM (inactive)

— ChEMBL document CHEMBL1201862, “PubChem BioAssay data set” (2004)
